Columns and labels:
HCV GT1a replicon cells = test: HCV replicon assay, GT1a replicon cells (luciferase reporter / NEO gene qPCR); assay type: cell-based; conditions: EC50 range against HCV 1a genotype, 72 hours incubation
Method: (§1) An HCV Replicon assay was utilized in the present disclosure, and was prepared, developed and validated as described in Science, 1999, 285 (5424), 110-3 and J. Virol., 2003, 77 (5), 3007-19.
(§2) HCV GT1a, GT1b and GT2a replicon cells were used to test the currently described compound series as well as wild-type cells HCV 1b and resistant cells Y93H, L31F, P32L and 1302V. GT1a, GT1b and GT2a are HCV Replicon System which is transfected HCV 1a, 1b, 2a genotype respectively. The system containing G418 resistance gene NEO and Luciferase Reporter Gene can be used to determine the level of HCV replication, and evaluate the effects of the compounds inhibiting HCV replication, by using a real-time quantitative polymerase chain reaction (qPCR) method to detect NEO, and chemiluminescence method to test Luciferase Reporter Gene.
(§3) 1. Testing EC50 of the Compounds by Luciferase Assay
(§4) The GT1a cells and GT1b cells were seeded into 96-well plates (8,000 cells in 125 μl/well) respectively; each compound was diluted to desired concentration using 5-fold serial dilutions protocol, 10 dose in duplicate, and added to wells with POD™ 810 Plate Assembler. The final concentration of DMSO was 0.5%; the plates were incubated in a CO2 incubator for 72 hours; after that, 40 μl of Luciferase assay substrate (Promega Bright-Glo) was added to each well, and detected by a chemiluminescence detection system (Topcount Microplate Scintillation and Luminescence Counter) 5 minutes later; data analysis.
(§5) 2. Testing EC50 of the Compounds by Detecting Antibiotic G418 Resistance Gene NEO Gene
(§6) The GT1a cells and GT1b cells were seeded into 96-well plates (8,000 cells in 125 μl/well) respectively; each compound was diluted to desired concentration using 5-fold serial dilutions protocol, 10 dose in duplicate, and added to wells with POD™ 810 Plate Assembler, the final concentration of DMSO was 0.5%; the cells were incubated in a CO2 incubator for 72 hours; quantitative PCR. • Sample preparation: the supernatant was removed, 100 μl of FCW buffer solution was added to each well, washed carefully and discarded the solution; 50 μl of lysate FCP was added to each well, the cells was lysed as PCR template and PCR template was diluted with DEPC water as sample template. • Quantitative PCR: preparation of reaction mixture according to PCR system; the reaction mixture was dispensed into a 384-well PCR reaction plate (specially for quantitative); and a standard template which was diluted in proportion was distributed into the plate; and the sample template was distributed into the plate; then the 384-well plate was sealed with closure plate membrane; the […] PCR machine was operated by procedures; data analysis.
(§7) 3. Data processing: EC50 values of compounds were analyzed by GRAPHPAD PRISM® software.

HCV GT1b replicon cells = test: HCV replicon assay, GT1b replicon cells (luciferase reporter / NEO gene qPCR); assay type: cell-based; conditions: EC50 range against HCV 1b genotype, 72 hours incubation
Method: as §1, §2, §3, §4, §5, §6, §7

SMILES	EC50 (HCV GT1a replicon cells; Hepatitis C virus, GT1A)	EC50 (HCV GT1b replicon cells; Hepatitis C virus, GT1B, 72 h)	EC50 (HCV GT1a replicon cells)	EC50 (HCV GT1b replicon cells)
COC(=O)N[C@H](C(=O)N1CCC[C@H]1c1ncc(-c2ccc(-c3ccc(-c4cnc([C@@H]5CCCN5C(=O)[C@@H](NC(=O)OC)C(C)C)[nH]4)c4c3CC3(CCCC3)C4)cc2)[nH]1)C(C)C [Example 14]	0.001 to 0.1 nM	> 10 nM	–	–
COC(=O)N[C@H](C(=O)N1CCC[C@H]1c1nc2ccc(-c3ccc(-c4ccc5nc([C@@H]6CCCN6C(=O)[C@@H](NC(=O)OC)C(C)C)[nH]c5c4)c4c3CC3(CCC(C)CC3)C4)cc2[nH]1)C(C)C [Example 4]	0.001 to 0.1 nM	0.001 to 0.1 nM	–	–
CCC(=O)N[C@H](C(=O)N1CCC[C@H]1c1ncc(-c2ccc(-c3ccc(C#Cc4cnc([C@@H]5CCCN5C(=O)[C@@H](NC(=O)OC)C(C)C)[nH]4)c4c3CC3(CCCC3)C4)cc2)[nH]1)C(C)C [Example 24]	0.001 to 0.1 nM	0.001 to 0.1 nM	–	–
COC(=O)N[C@H](C(=O)N1CCC[C@H]1c1nc2ccc(-c3ccc(-c4ccc5nc([C@@H]6CCCN6C(=O)[C@@H](NC(=O)OC)C(C)C)[nH]c5c4)c4c3CC3(CCCC3)C4)cc2[nH]1)C(C)C [Example 22]	0.001 to 0.1 nM	0.001 to 0.1 nM	–	–
COC(=O)N[C@H](C(=O)N1C[C@@H](C)C[C@H]1c1ncc(-c2ccc(-c3ccc(-c4ccc(-c5cnc([C@@H]6C[C@H](C)CN6C(=O)[C@@H](NC(=O)OC)C(C)C)[nH]5)cc4)c4c3CC3(CCCC3)C4)cc2)[nH]1)C(C)C [Example 40]	0.001 to 0.1 nM	1 to 10 nM	–	–
COC(=O)N[C@H](C(=O)N1CC(F)(F)C[C@H]1c1ncc(-c2ccc(-c3ccc(-c4cnc([C@@H]5CC(F)(F)CN5C(=O)[C@@H](NC(=O)OC)C(C)C)[nH]4)c4c3CC3(CCCC3)C4)cc2)[nH]1)C(C)C [Example 15]	0.001 to 0.1 nM	> 10 nM	–	–
COC(=O)N[C@H](C(=O)N1CCC[C@H]1c1ncc(C#Cc2ccc(C#Cc3cnc([C@@H]4CCCN4C(=O)[C@@H](NC(=O)OC)C(C)C)[nH]3)c3c2CC2(CCCC2)C3)[nH]1)C(C)C [Example 8]	0.001 to 0.1 nM	1 to 10 nM	–	–
COC(=O)N[C@H](C(=O)N1CCC[C@H]1c1ncc(-c2ccc(-c3ccc(-c4cnc([C@@H]5CCCN5C(=O)[C@@H](NC(=O)OC)C(C)C)[nH]4)c4c3CC3(CCCC3)C4)s2)[nH]1)C(C)C [Example 17]	0.101 to 1 nM	> 10 nM	–	–
COC(=O)N[C@H](C(=O)N1C[C@@H](C)C[C@H]1c1ncc(-c2ccc(-c3ccc(-c4cnc([C@@H]5C[C@H](C)CN5C(=O)[C@@H](NC(=O)OC)C(C)C)[nH]4)c4c3CC3(CCCCC3)C4)cc2)[nH]1)C(C)C [Example 20]	–	–	0.001 to 0.1 nM	0.101 to 1 nM
COC(=O)N[C@H](C(=O)N1CCC[C@H]1c1ncc(-c2ccc(-c3ccc(-c4cnc([C@@H]5CCCN5C(=O)[C@@H](NC(=O)OC)c5ccccc5)[nH]4)c4c3CC3(CCCC3)C4)cc2)[nH]1)c1ccccc1 [Example 16]	0.001 to 0.1 nM	> 10 nM	–	–
COC(=O)NC(C(=O)N1CC2(C[C@H]1c1ncc(-c3ccc(-c4ccc(-c5cnc([C@@H]6CCCN6C(=O)[C@@H](NC(=O)OC)C(C)C)[nH]5)c5c4CC4(CCCC4)C5)cc3)[nH]1)OCCO2)C(C)C (stereo partly shown) [Example 51]	0.001 to 0.1 nM	> 10 nM	–	–
COC(=O)N[C@H](C(=O)N1C[C@H](F)C[C@H]1c1ncc(-c2ccc(-c3ccc(-c4cnc([C@@H]5C[C@@H](F)CN5C(=O)[C@@H](NC(=O)OC)C(C)C)[nH]4)c4c3CC3(CCCC3)C4)cc2)[nH]1)C(C)C [Example 29]	0.001 to 0.1 nM	0.001 to 0.1 nM	–	–
COC(=O)N[C@H](C(=O)N1CCC[C@H]1c1ncc(-c2ccc3cc(-c4ccc(-c5cnc([C@@H]6CCCN6C(=O)[C@@H](NC(=O)OC)C(C)C)[nH]5)c5c4CC4(CCCCC4)C5)ccc3c2)[nH]1)C(C)C [Example 49]	0.001 to 0.1 nM	1 to 10 nM	–	–
COC(=O)N[C@H](C(=O)N1CCC[C@H]1C(=O)Nc1ccc(-c2ccc(-c3ccc(NC(=O)[C@@H]4CCCN4C(=O)[C@@H](NC(=O)OC)C(C)C)cc3)c3c2CC2(CCCC2)C3)cc1)C(C)C [Example 39]	0.001 to 0.1 nM	0.101 to 1 nM	–	–
CCC(C)[C@H](NC(=O)OC)C(=O)N1CCC[C@H]1c1nc2ccc(-c3ccc(-c4ccc(-c5cnc([C@@H]6CCCN6C(=O)[C@@H](NC(=O)OC)C(C)C)[nH]5)cc4)c4c3CC3(CCCC3)C4)cc2[nH]1 (stereo partly shown) [Example 11]	0.001 to 0.1 nM	0.001 to 0.1 nM	–	–
COC(=O)N[C@H](C(=O)N1CCC[C@H]1c1ncc(-c2ccc(-c3ccc(-c4cnc([C@@H]5CCCN5C(=O)[C@@H](NC(=O)OC)C(C)C)[nH]4)c4c3C(=O)C3(CCCC3)C4)cc2)[nH]1)C(C)C [Example 37]	1 to 10 nM	1 to 10 nM	–	–
COC(=O)N[C@H](C(=O)N1C(c2ncc(-c3ccc(-c4ccc(-c5ccc6nc([C@@H]7CC8CC8N7C(=O)[C@@H](NC(=O)OC)C(C)C)[nH]c6c5)c5c4CC4(CCCC4)C5)cc3)[nH]2)CC2CC21)C(C)C (stereo partly shown) [Example 54]	0.001 to 0.1 nM	0.101 to 1 nM	–	–
COC(=O)N[C@H](C(=O)N1CCC[C@H]1c1ncc(C#Cc2ccc(C#Cc3cnc([C@@H]4CCCN4C(=O)[C@@H](NC(=O)OC)C(C)C)[nH]3)c3c2CC2(CCCC2)C3=O)[nH]1)C(C)C [Example 2]	0.101 to 1 nM	> 10 nM	–	–
COC(=O)N[C@H](C(=O)N1CCCC[C@H]1c1ncc(-c2ccc(-c3ccc(-c4cnc([C@@H]5CCCCN5C(=O)[C@@H](NC(=O)OC)C(C)C)[nH]4)c4c3CC3(CCCC3)C4)cc2)[nH]1)C(C)C [Example 45]	0.001 to 0.1 nM	> 10 nM	–	–
COC(=O)N[C@H](C(=O)N1CCC[C@H]1c1ncc(-c2ccc(-c3ccc(-c4cnc([C@@H]5CCCN5C(=O)[C@@H](NC(=O)OC)C(C)C)[nH]4)c4c3CC3(CCCCC3)C4)cc2)[nH]1)C(C)C [Example 50]	0.001 to 0.1 nM	1 to 10 nM	–	–
COC(=O)N[C@H](C(=O)N1CC2(CC2)C[C@H]1c1ncc(-c2ccc(-c3ccc(-c4ccc(-c5cnc([C@@H]6CC7(CC7)CN6C(=O)[C@@H](NC(=O)OC)C(C)C)[nH]5)cc4)c4c3CC3(CCCC3)C4)cc2)[nH]1)C(C)C [Example 41]	1 to 10 nM	> 10 nM	–	–
COC(=O)N[C@H](C(=O)N1CCC[C@H]1c1nc(-c2ccc(-c3ccc(-c4ccc(-c5cnc([C@@H]6CCCN6C(=O)[C@@H](NC(=O)OC)C(C)C)[nH]5)cc4)c4c3C(=O)C3(CCCC3)C4)cc2)c[nH]1)C(C)C [Example 1]	0.001 to 0.1 nM	1 to 10 nM	–	–
COC(=O)N[C@H](C(=O)N1CCC[C@H]1c1nc2ccc(-c3ccc(-c4ccc5nc([C@@H]6CCCN6C(=O)[C@@H](NC(=O)OC)C(C)C)[nH]c5c4)c4c3CC3(CCC(C)CC3)C4=O)cc2[nH]1)C(C)C (stereo partly shown) [Example 3]	0.001 to 0.1 nM	0.001 to 0.1 nM	–	–
COC(=O)N[C@H](C(=O)N1CCC[C@H]1c1nc2ccc(-c3ccc(-c4ccc5nc([C@@H]6CCCN6C(=O)[C@@H](NC(=O)OC)C(C)C)[nH]c5c4)c4c3CC3(CCCCC3)C4=O)cc2[nH]1)C(C)C [Example 5]	0.001 to 0.1 nM	0.101 to 1 nM	–	–
COC(=O)N[C@H](C(=O)N1CCCC1C(=O)Nc1cccc(-c2ccc(-c3ccc(-c4cnc([C@@H]5CCCN5C(=O)[C@@H](NC(=O)OC)C(C)C)[nH]4)cc3)c3c2CC2(CCCC2)C3)c1)C(C)C (stereo partly shown) [Example 56]	0.001 to 0.1 nM	1 to 10 nM	–	–
COC(=O)N[C@H](C(=O)N1CCC[C@H]1c1ncc(-c2ccc(-c3ccc(-c4ccc5nc([C@@H]6CCCN6C(=O)[C@@H](NC(=O)OC)C(C)C)[nH]c5c4)c4c3CC3(CCCC3)C4)nc2)[nH]1)C(C)C [Example 21]	0.001 to 0.1 nM	1 to 10 nM	–	–

From patent US9303061B2, “Spiro compounds as Hepatitis C virus inhibitors” (Sunshine Luke Pharma Co., Ltd., priority 2011, dated 2016)
